The record followed here is ChEMBL document CHEMBL5365405, “Discovery of potent NAMPT-Targeting PROTACs using FK866 as the warhead” (Bioorg Med Chem Lett, 2023).

As a reminder, the IC50 is the concentration that inhibits the measured activity by half. The EC50 is the midpoint of the concentration-response curve.

The target of data set [1] is Nicotinamide phosphoribosyltransferase (Homo sapiens, UniProt P43490). Kind of data set: Inhibition of NAMPT (unknown origin).
Data set [2] is described as follows: Cytotoxicity activity against HUVEC cells assessed as cell growth inhibition. It is filed as toxicity, cell-based. The conditions noted are these: human.
Data set [3] relates to A2780. Put plainly: Antiproliferative activity against human A2780 cells assessed as cell growth inhibition. The format is functional, cell-based.
The target in data set [4] is T1, von Hippel-Lindau disease tumor suppressor/Nicotinamide phosphoribosyltransferase (Homo sapiens) (UniProt P43490+P40337). Kind of data set: (§1) PROTAC activity at VHL/NAMPT in human A2780 cells assessed as protein degradation measured after 24 hrs by Western blot analysis. It is filed as cell-based. Background: Immunoblotting shows a protein as a band on a membrane.
T1 sequence (P40337 whole entry, looked up): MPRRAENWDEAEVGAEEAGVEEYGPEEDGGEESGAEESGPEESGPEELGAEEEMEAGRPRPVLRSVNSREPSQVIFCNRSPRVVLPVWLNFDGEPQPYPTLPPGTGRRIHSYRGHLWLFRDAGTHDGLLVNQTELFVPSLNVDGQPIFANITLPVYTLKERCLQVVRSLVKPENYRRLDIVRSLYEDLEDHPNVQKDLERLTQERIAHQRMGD
T1 sequence (P43490 whole entry, looked up): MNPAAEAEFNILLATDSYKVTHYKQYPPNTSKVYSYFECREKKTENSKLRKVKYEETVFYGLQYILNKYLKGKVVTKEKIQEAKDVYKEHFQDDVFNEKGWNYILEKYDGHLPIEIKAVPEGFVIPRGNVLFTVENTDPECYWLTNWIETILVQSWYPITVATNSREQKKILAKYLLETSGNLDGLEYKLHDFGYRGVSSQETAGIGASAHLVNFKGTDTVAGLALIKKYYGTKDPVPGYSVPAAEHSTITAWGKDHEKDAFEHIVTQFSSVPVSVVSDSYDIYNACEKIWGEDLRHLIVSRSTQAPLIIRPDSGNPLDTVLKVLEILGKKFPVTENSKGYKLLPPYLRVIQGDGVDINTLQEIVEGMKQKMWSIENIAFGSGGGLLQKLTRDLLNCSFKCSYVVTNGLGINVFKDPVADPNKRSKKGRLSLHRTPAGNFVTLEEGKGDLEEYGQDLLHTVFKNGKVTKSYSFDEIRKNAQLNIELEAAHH

Data set [5] deals with von Hippel-Lindau disease tumor suppressor/Nicotinamide phosphoribosyltransferase (Homo sapiens, UniProt P40337+P43490). The data set is described as §1. The format is cell-based.
Chain of von Hippel-Lindau disease tumor suppressor/Nicotinamide phosphoribosyltransferase (P43490 whole entry): as the sequence (P43490 whole entry, looked up) above
Chain of von Hippel-Lindau disease tumor suppressor/Nicotinamide phosphoribosyltransferase (P40337 whole entry): as the sequence (P40337 whole entry, looked up) above
Data set [6] concerns the target T1, von Hippel-Lindau disease tumor suppressor/Nicotinamide phosphoribosyltransferase (Homo sapiens). Put plainly: PROTAC activity at VHL/NAMPT in human A2780 cells assessed as protein degradation at 200 nM preincubated with carfilzomib followed by compound addition and measured after 24 hrs by Western blot analysis. It is filed as cell-based.
For data set [7] the target is unchanged. Kind of data set: PROTAC activity at VHL/NAMPT in human A2780 cells assessed as protein degradation at 200 nM preincubated with VHL-Ac followed by compound addition and measured after 24 hrs by Western blot analysis. It is filed as cell-based.
The target is the same in data set [8]. Kind of data set: PROTAC activity at VHL/NAMPT in human A2780 cells assessed as protein degradation at 200 nM by Western blot analysis. It is filed as cell-based. As to conditions: TDE = time-dependent effect.
Data set [9] has the same target. Kind of data set: PROTAC activity at VHL/NAMPT in human A2780 cells assessed as protein degradation at 200 nM preincubated with VHL-Boc followed by compound addition and measured after 24 hrs by Western blot analysis. It is filed as cell-based.
Data set [10] shares this target. Put plainly: PROTAC activity at VHL/NAMPT in human A2780 cells assessed as protein degradation at 200 nM preincubated with NAMPT inhibitor, FK866 followed by compound addition and measured after 24 hrs by Western blot analysis. The format is cell-based.
For data set [11], the system named is A2780. Kind of data set: Induction of apoptosis in human A2780 cells assessed as total apoptotic cells at 1000 nM incubated for 48 hrs by flow cytometry analysis (reference value: 9.27 %). It is filed as functional.
Data set [12] relates to A2780. Kind of data set: Induction of apoptosis in human A2780 cells assessed as total apoptotic cells at 40 nM incubated for 48 hrs by flow cytometry analysis (reference value: 9.27 %). The format is functional.
The target in data set [13] is T1, von Hippel-Lindau disease tumor suppressor/Nicotinamide phosphoribosyltransferase (Homo sapiens). Put plainly: PROTAC activity at VHL/NAMPT in human A2780 cells assessed as protein degradation at 200 nM preincubated with MLN4924 followed by compound addition and measured after 24 hrs by Western blot analysis. It is filed as cell-based.
Data set [14] has the same target. Put plainly: PROTAC activity at VHL/NAMPT in human A2780 cells assessed as protein degradation at 200 nM measured after 24 hrs by Western blot analysis relative to control. The format is cell-based.
For data set [15], the system named is A2780. Put plainly: Induction of apoptosis in human A2780 cells assessed as total apoptotic cells at 1.6 nM incubated for 48 hrs by flow cytometry analysis (reference value: 9.27 %). The format is functional. Background: Flow cytometry measures light scatter and fluorescence of single cells or particles in a stream.
For data set [16], the target named is T1, von Hippel-Lindau disease tumor suppressor/Nicotinamide phosphoribosyltransferase (Homo sapiens). Put plainly: PROTAC activity at VHL/NAMPT in human A2780 cells assessed as protein degradation at 200 nM preincubated with MG132 followed by compound addition and measured after 24 hrs by Western blot analysis. It is filed as cell-based.

The structures appear in SMILES notation. Active and inactive are the calls of the source. The rule behind the calls is not given here.

Chain of Nicotinamide phosphoribosyltransferase (P43490 whole entry): as the sequence (P43490 whole entry, looked up) above

`Cc1ncsc1-c1ccc([C@H](C)NC(=O)[C@@H]2C[C@@H](O)CN2C(=O)[C@@H](NC(=O)CCCCCCNC(=O)c2ccc(C(=O)N3CCC(CCCCNC(=O)/C=C/c4cccnc4)CC3)cc2)C(C)(C)C)cc1`: the results for the 50% inhibitory concentration (IC50) (in data set [1]; in data set [2]; with A2780 [3]) were 1.59 nM, 0.07 nM and 5.9 nM, respectively. In addition, the Activity entry in [4] was “Dose-Dependent Effect”. Besides, the 50% effective concentration (EC50) in data set [5] amounted to 56 nM.

On to `Cc1ncsc1-c1ccc([C@H](C)NC(=O)[C@@H]2C[C@@H](O)CN2C(=O)[C@@H](NC(=O)CCCCCCCCNC(=O)c2ccc(C(=O)N3CCC(CCCCNC(=O)/C=C/c4cccnc4)CC3)cc2)C(C)(C)C)cc1`, for which the results for the concentration for half-maximal inhibition (IC50) (in data set [1]; in data set [2]; in the data set on A2780 [3]) were 3.12 nM, 0.9 nM and 37.9 nM, respectively. Also, in [4], the Activity result was “Dose-Dependent Effect”. For the same compound, the 50% effective concentration (EC50) in [5] is 54.4 nM.

As to `Cc1ncsc1-c1ccc([C@H](C)NC(=O)[C@@H]2C[C@@H](O)CN2C(=O)[C@@H](NC(=O)COCCOCCOCCOCCNC(=O)c2ccc(CN3CCN(S(=O)(=O)c4ccc(NC(=S)NCc5cccnc5)cc4)CC3)cc2)C(C)(C)C)cc1`, the half-inhibitory concentration (IC50) with A2780 [3] is under 4 nM.

`Cc1ncsc1-c1ccc([C@H](C)NC(=O)[C@@H]2C[C@@H](O)CN2C(=O)[C@@H](NC(=O)CCCCCCCNC(=O)c2ccc(C(=O)N3CCC(CCCCNC(=O)/C=C/c4cccnc4)CC3)cc2)C(C)(C)C)cc1`: the result in data set [6], in [7], in [9], in data set [10], in data set [13] and in data set [16] was inactive. The IC50 came to 2.14 nM in data set [1], 0.3 nM in data set [2] and 30.6 nM with A2780 [3]. In addition, the Activity entry in [8] was “Tde”; in the data set with A2780 [11] it was 20.81%; in the data set with A2780 [12], 14.57%; in data set [4] it was “Dose-Dependent Effect”; in [14], 78%; with A2780 [15], 10.15%. For the same compound, the concentration giving a half-maximal response (EC50) in data set [5] is 31.7 nM.

In the case of `Cc1ncsc1-c1ccc([C@H](C)NC(=O)[C@@H]2C[C@@H](O)CN2C(=O)[C@@H](NC(=O)CCCNC(=O)c2ccc(C(=O)N3CCC(CCCCNC(=O)/C=C/c4cccnc4)CC3)cc2)C(C)(C)C)cc1`, the figures for the IC50 (in [1]; in data set [2]; with A2780 [3]) were 1.53 nM, 1.05 nM and 33.7 nM, respectively.

As to `Cc1ncsc1-c1ccc([C@H](C)NC(=O)[C@@H]2C[C@@H](O)CN2C(=O)[C@@H](NC(=O)CCCCCCCCCCNC(=O)c2ccc(C(=O)N3CCC(CCCCNC(=O)/C=C/c4cccnc4)CC3)cc2)C(C)(C)C)cc1`, the half-maximal inhibitory concentration (IC50) in data set [1] came to 1.47 nM; in data set [2], 2.23 nM; with A2780 [3], 41.1 nM. Also, in data set [5], the EC50 came to 111 nM.

As for `Cc1ncsc1-c1ccc([C@H](C)NC(=O)[C@@H]2C[C@@H](O)CN2C(=O)[C@@H](NC(=O)CCCCNC(=O)c2ccc(C(=O)N3CCC(CCCCNC(=O)/C=C/c4cccnc4)CC3)cc2)C(C)(C)C)cc1`, the values for the 50% inhibitory concentration (IC50) (in [1]; in data set [2]; with A2780 [3]) were 2.67 nM, 0.21 nM and 3 nM, respectively. For the same compound, the Activity entry in data set [4] is “Dose-Dependent Effect”. Moreover, the half-maximal effective concentration (EC50) in data set [5] was found to be 189 nM.

Turning to `O=C(/C=C/c1cccnc1)NCCCCC1CCN(C(=O)c2ccccc2)CC1` [DAPORINAD], the IC50 in [2] was under 0.001 nM; in the data set on A2780 [3], under 3 nM. Besides, the results for the Activity with A2780 [11], with A2780 [12] and in the data set with A2780 [15] were 26.84%, 16.3% and 10.22%, respectively.

As to `Cc1ncsc1-c1ccc([C@H](C)NC(=O)[C@@H]2C[C@@H](O)CN2C(=O)[C@@H](NC(=O)CCCCCCCCCNC(=O)c2ccc(C(=O)N3CCC(CCCCNC(=O)/C=C/c4cccnc4)CC3)cc2)C(C)(C)C)cc1`, the concentration for half-maximal inhibition (IC50) was determined as 7.3 nM in data set [1], 1.51 nM in data set [2] and 69.2 nM with A2780 [3]. In addition, the 50% effective concentration (EC50) in [5] was over 500 nM.

With `Cc1ncsc1-c1ccc([C@H](C)NC(=O)[C@@H]2C[C@@H](O)CN2C(=O)[C@@H](NC(=O)CCCCCNC(=O)c2ccc(C(=O)N3CCC(CCCCNC(=O)/C=C/c4cccnc4)CC3)cc2)C(C)(C)C)cc1`, the results for the IC50 (in data set [1]; in [2]; in the data set with A2780 [3]) were 5.59 nM, 0.45 nM and 2.4 nM, respectively. In data set [4], the Activity result is “Dose-Dependent Effect”. The 50% effective concentration (EC50) in data set [5] worked out at 293 nM.
